Test results reported in patent publication US10548912B2, “Dosage regimen for a tiacumicin compound” (Astellas Pharma Europe Ltd., priority 2015, dated 2020).
Like-named read-outs stand apart in the source and are kept apart here.

Experiments:
[1] = tested on: Clostridium difficile infections (CDI); conditions: following a vancomycin taper; cited from earlier work
CDI = conditions: Phase III studies, mITT analysis; cited from earlier work
[2] = tested on: Clostridium difficile infection; conditions: Cornely 2012; 200 mg Fidaxomicin twice daily or vancomycin 125 mg four times daily orally for 10 days; cited from earlier work
[3] = tested on: Clostridium difficile infection; conditions: Louie 2011; 200 mg Fidaxomicin twice daily or vancomycin 125 mg four times daily orally for 10 days; cited from earlier work
[4] = tested on: Clostridium difficile infection; test: Phase IIIb/IV randomized open-label EXTEND study (2819-MA-1002): extended fidaxomicin vs standard vancomycin; assay type: in vivo, human
Method: Fidaxomicin (FDX) is believed to reduce recurrence primarily through minimal collateral damage to colonic microflora. […] Subjects will receive 200 mg twice daily (b.i.d.) for 5 days from Day 1 to Day 5. From Day 6 to Day 25, subjects will receive 200 mg once daily on alternate days (first alternate day dose given on Day 7). This extension of the dose will allow a longer period for the protective microflora to recover and extend the period of time over which Clostridium difficile cells are suppressed, and kill any dormant spores that germinate. The extension of the dose also targets the early recurrence period documented in the phase 3 studies—the first 15 days after the end of therapy during which the majority of recurrences occurred. By covering this period this revised dosing regimen may reduce the recurrence to <10%, preferably to <5% and even more preferred to <3%. The impact on the gut microflora was limited supporting the rationale for this study.
The dosing of vancomycin (Vancocin™) to be administered in this study is in line with the SmPC for Vancocin. Subjects will receive 125 mg four times daily (q.i.d.) for 10 days from Day 1 to Day 10.
The dosage regimen was as described in Table 1 of Example 1.

[5] = tested on: Clostridium difficile (C. diff) toxins A and B; test: Detection of C. difficile toxins A and B in human faecal samples by ELISA (EXTEND samples); assay type: in vivo
Method: The detection of Clostridium difficile (C. diff) toxins A and B in human faecal samples was performed by ELISA. The samples to be analysed originated from clinical study 2819-MA-1002 (EXTEND).
The samples were sent to LGC (Analytical lab in Fordham, Cambridgeshire, UK) packed in dry ice and upon receipt stored in a freezer (nominally −80° C.). For each patient a stool sample was collected at Day 0 (screening) and also in case of disease recurrence or an unscheduled visit. For subjects participating in the Microbiome sub-study stool samples were collected at: Day 0 (screening), Day 5, Day 12, Day 27, Day 40, Day 55 and in the case of disease recurrence or an unscheduled visit. A total of 596 faecal samples were collected during the study.
C. difficile toxins A and B in human faecal samples were detected using TECHLAB C. difficile Tox A/B II ELISA kits (Product Number T5015).
The assay readout is the spectrophotometric dual wavelength optical density (OD) read at 450 nm and referenced at 620 nm and expressed in Absorbance Units (AU). All samples were measured in duplicate. The presence (+) or absence (−) of toxin was reported together with the mean OD.
The acceptability of each batch of test samples was dependent on the data from the QC samples fulfilling the acceptance criteria outlined below in Table 5, in that all positive QCs remain above the cut off value of >0.080 OD and negative QCs remain ≤0.080 OD. All batches contained 2 separate sets of QC samples which were measured in duplicate. The precision was calculated between the OD of replicates of each set using the coefficient of variation (CV) which should be <20%.

[6] = Day 55, extended fidaxomicin or standard vancomycin
[7] = Table 7, extended fidaxomicin regimen of Example 1 or standard vancomycin
[8] = extended fidaxomicin Day 55, standard vancomycin Day 40
[9] = Sub-study visit day 5, n = 20 per arm
[10] = Sub-study visit day 12, n = 20 per arm
[11] = Sub-study visit day 27, n = 20 Fidaxomicin, 17 Vancomycin

## CN[C@H](CC(C)C)C(=O)N[C@H]1C(=O)N[C@@H](CC(N)=O)C(=O)N[C@H]2C(=O)N[C@H]3C(=O)N[C@H](C(=O)N[C@H](C(=O)O)c4cc(O)cc(O)c4-c4cc3ccc4O)[C@H](O)c3ccc(c(Cl)c3)Oc3cc2cc(c3O[C@@H]2O[C@H](CO)[C@@H](O)[C@H](O)[C@H]2O[C@H]2C[C@](C)(N)[C@H](O)[C@H](C)O2)Oc2ccc(cc2Cl)[C@H]1O [vancomycin]
[1]
  Average symptom-free interval (SFI): 37 days
CDI
  Recurrence of CDI: 26%
[2]
  Recurrence 30 days after end of treatment (%): 26.9%
  Recurrence 30 days after end of treatment (patients/N): 60/223
  Sustained clinical cure 30 days after end of treatment (patients/N): 163/257
[3]
  Recurrence 30 days after end of treatment (%): 25.3%
  Recurrence 30 days after end of treatment (patients/N): 67/265
  Sustained clinical cure 30 days after end of treatment (patients/N): 198/309
[4]; Day 1
  % of patients with <3 Unformed bowel movements per day (UBM): 21.1%
  % of patients with ≥3 Unformed bowel movements per day (UBM): 78.9%
[4]; Day 2
  % of patients with <3 Unformed bowel movements per day (UBM): 40.6%
  % of patients with ≥3 Unformed bowel movements per day (UBM): 59.4%
[4]; Day 3
  % of patients with <3 Unformed bowel movements per day (UBM): 59.6%
  % of patients with ≥3 Unformed bowel movements per day (UBM): 40.4%
[4]; Day 4
  % of patients with <3 Unformed bowel movements per day (UBM): 72.0%
  % of patients with ≥3 Unformed bowel movements per day (UBM): 28.0%
[4]; Day 5
  % of patients with <3 Unformed bowel movements per day (UBM): 81.4%
  % of patients with ≥3 Unformed bowel movements per day (UBM): 18.6%
[4]; Day 6
  % of patients with <3 Unformed bowel movements per day (UBM): 80.6%
  % of patients with ≥3 Unformed bowel movements per day (UBM): 19.4%
[4]; Day 7
  % of patients with <3 Unformed bowel movements per day (UBM): 85.5%
  % of patients with ≥3 Unformed bowel movements per day (UBM): 14.5%
[4]; Day 8
  % of patients with <3 Unformed bowel movements per day (UBM): 86.8%
  % of patients with ≥3 Unformed bowel movements per day (UBM): 13.2%
[4]; Day 9
  % of patients with <3 Unformed bowel movements per day (UBM): 88.1%
  % of patients with ≥3 Unformed bowel movements per day (UBM): 11.9%
[4]; Day 10
  % of patients with <3 Unformed bowel movements per day (UBM): 89.9%
  % of patients with ≥3 Unformed bowel movements per day (UBM): 10.1%
[4]; Day 11
  % of patients with <3 Unformed bowel movements per day (UBM): 91.5%
  % of patients with ≥3 Unformed bowel movements per day (UBM): 8.5%
[4]; Day 12
  % of patients with <3 Unformed bowel movements per day (UBM): 94.7%
  % of patients with ≥3 Unformed bowel movements per day (UBM): 5.3%
[4]; Day 13
  % of patients with <3 Unformed bowel movements per day (UBM): 84.4%
  % of patients with ≥3 Unformed bowel movements per day (UBM): 15.6%
[4]; [6]
  Recurrence of CDI (%) at visit 5 (Day 55): 16.1%
  Recurrence of CDI at visit 5 (Day 55) (patients/N): 26/161
[4]; Day 55, extended fidaxomicin or standard vancomycin, listed as VAN
  Recurrence of CDI at visit 5 (Day 55) (patients/N): 15/94
[4]; [7]
  Recurrence 30 days after end of treatment (%): 16.1%
  Recurrence 30 days after end of treatment (patients/N): 26/161
[4]; [8]
  Sustained clinical cure (%) at 30 days after end of treatment: 62.9%
  Sustained clinical cure at 30 days after end of treatment (patients/N): 105/167
[4]; extended fidaxomicin Day 55, standard vancomycin Day 40, listed as VAN
  Sustained clinical cure (%) at 30 days after end of treatment: 62.9%
[5]; [9]
  CDI toxin in faecal stool samples, Negative (%): (75%)
  CDI toxin in faecal stool samples, Negative (number of subjects): 15
  CDI toxin in faecal stool samples, Positive (%): (25.0%)
  CDI toxin in faecal stool samples, Positive (number of subjects): 5
[5]; [10]
  CDI toxin in faecal stool samples, Negative (%): (100.0%)
  CDI toxin in faecal stool samples, Negative (number of subjects): 20
  CDI toxin in faecal stool samples, Positive (number of subjects): 0
[5]; [11]
  CDI toxin in faecal stool samples, Negative (%): (82.4%)
  CDI toxin in faecal stool samples, Negative (number of subjects): 14
  CDI toxin in faecal stool samples, Positive (%): (17.6%)
  CDI toxin in faecal stool samples, Positive (number of subjects): 3
